Reference: EP2578599A1 (LanthioPep B.V., priority 2011, dated 2013)

How the values were obtained:
carboxypeptidase Y (cpY) = carboxypeptidase Y (cpY) (Saccharomyces cerevisiae, UniProt P00729); experiment: Proteolytic resistance: incubation of peptide conformations with carboxypeptidase Y; format: in vitro ADME; conditions: HPLC peaks of nisin leader - GLP-1 fragment (29-36) peptide treated with cpY
Experimental: Production of peptide in Lactococcus lactis and characterization of the peptide were performed as described in Plat et al. (Polymers 2011, 3, 1282-1296).
(§1) After overnight incubation of the purified peptide containing a lysinoalanine at RT in 0.25 % ammonia (w/v) the sample was applied on a C18 column (Alltech, alltima analytical C18 column 5 µm). Peaks were collected and analyzed by mass spectrometry. Different conformations of the peptide were incubated with trypsin and cpY (Figure 2).

trypsin = experiment: Proteolytic resistance: incubation of peptide conformations with trypsin; format: in vitro ADME
Experimental: as §1, with “Production of peptide in Lactococcus lactis and characterization of the peptide were performed as described in Plat et al. (Polymers 2011, 3, 1282-1296). […] After inducing dehydration the peptide was harvested from the medium and characterized. After” for “After”, “([…]” for “(Alltech, alltima”, “μm).” for “µm).”

Sequence of carboxypeptidase Y (cpY) (P00729 112-532): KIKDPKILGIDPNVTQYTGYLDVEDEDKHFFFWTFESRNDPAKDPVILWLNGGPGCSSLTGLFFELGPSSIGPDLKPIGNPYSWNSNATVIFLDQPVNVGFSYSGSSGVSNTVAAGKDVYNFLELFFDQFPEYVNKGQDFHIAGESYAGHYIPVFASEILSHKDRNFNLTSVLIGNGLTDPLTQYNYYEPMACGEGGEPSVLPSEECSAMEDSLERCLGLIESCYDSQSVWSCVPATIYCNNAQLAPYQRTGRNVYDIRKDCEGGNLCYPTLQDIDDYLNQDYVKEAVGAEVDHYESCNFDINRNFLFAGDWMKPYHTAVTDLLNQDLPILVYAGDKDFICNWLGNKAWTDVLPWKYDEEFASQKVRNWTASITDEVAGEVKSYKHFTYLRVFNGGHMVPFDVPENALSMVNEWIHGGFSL

In the case of “nisin leader - I Dha W L V K G R [lysinoalanine-bridged GLP-1 peptide]”, the “protection against carboxypeptidase Y (cpY)” value (carboxypeptidase Y (cpY)) is reported as “resistant” and the protection against trypsin (trypsin) is reported as “resistant”.
